From patent EP3858438A1, “3,4-DIHYDRO-2H-SPIRO[ISOQUINOLINE-1,4'-PIPERIDIN]AMIDE DERIVATIVES HAVING MULTIMODAL ACTIVITY AGAINST PAIN” (ESTEVE PHARMACEUTICALS, S.A., priority 2020, dated 2021)
Counter-ions that a name gives are not always drawn.

Legend:
[1] = molecular target: human α2δ-1 subunit of Cav2.2 calcium channel (Homo sapiens, UniProt P54289); test: Binding assay to human α2δ-1 subunit of Cav2.2 calcium channel ([3H]-Gabapentin); conditions: binding expressed as Ki; [3H]-Gabapentin 15 nM, human α2δ-1 enriched membranes
Procedure: Binding assay to human α2δ-1 subunit of Cav2.2 calcium channel.
Human α2δ-1 enriched membranes (2.5 µg) were incubated with 15 nM of radiolabeled [3H]-Gabapentin in assay buffer containing Hepes-KOH 10 mM, pH 7.4.
NSB (non specific binding) was measured by adding 10 µM pregabalin. The binding of the test compound was measured at either one concentration (% inhibition at 1 or 10 µM) or five different concentrations to determine affinity values (Ki). After 60 min incubation at 27 °C, binding reaction was terminated by filtering through Multiscreen GF/C (Millipore) presoaked in 0.5 % polyethyleneimine in Vacuum Manifold Station, followed by 3 washes with ice-cold filtration buffer containing 50 mM Tris-HCl, pH 7.4.
Filter plates were dried at 60 °C for 1 h and 30 µl of scintillation cocktail were added to each well before radioactivity reading.
Readings were performed in a Trilux 1450 Microbeta radioactive counter (Perkin Elmer).

[2] = molecular target: T1, human µ-opioid receptor (Homo sapiens, UniProt P35372); test: Binding assay to human µ-opioid receptor ([3H]-DAMGO, transfected CHO-K1 cell membranes); conditions: binding expressed as Ki, [3H]-DAMGO 1 nM
T1 construct: expressed in transfected cells; host or cells: CHO-K1
Procedure: Binding assay to human µ-opioid receptor
Transfected CHO-K1 cell membranes (20 µg) were incubated with [^3H]-DAMGO (1 nM) in assay buffer containing Tris-HCl 50 mM, MgCl2 5 mM at pH 7.4.
NBS (non-specific binding) was measured by adding 10 µM naloxone. The binding of the test compound was measured at either one concentration (% inhibition at 1 or 10 µM) or five different concentrations to determine affinity values (Ki). Plates were incubated at 27 °C for 60 min. After the incubation period, the reaction mixture was then transferred to MultiScreen HTS, FC plates (Millipore), filtered and plates were washed 3 times with ice-cold 10 mM Tris-HCl (pH 7.4).
Filters were dried and counted at approximately 40% efficiency in a MicroBeta scintillation counter (Perkin-Elmer) using EcoScint liquid scintillation cocktail.

T1 sequence (P35372 whole entry): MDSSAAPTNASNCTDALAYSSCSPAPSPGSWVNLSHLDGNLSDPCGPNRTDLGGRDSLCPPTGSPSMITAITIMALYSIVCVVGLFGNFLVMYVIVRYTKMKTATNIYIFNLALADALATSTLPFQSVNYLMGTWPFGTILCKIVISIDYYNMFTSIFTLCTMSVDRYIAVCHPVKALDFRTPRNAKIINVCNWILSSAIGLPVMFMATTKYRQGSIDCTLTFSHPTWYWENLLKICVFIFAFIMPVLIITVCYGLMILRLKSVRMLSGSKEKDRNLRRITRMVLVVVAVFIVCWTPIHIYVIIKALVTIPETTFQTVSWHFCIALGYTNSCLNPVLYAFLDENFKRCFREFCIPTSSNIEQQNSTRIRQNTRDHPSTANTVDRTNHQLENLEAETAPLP
Sequence of human α2δ-1 subunit of Cav2.2 calcium channel (P54289 25-1103): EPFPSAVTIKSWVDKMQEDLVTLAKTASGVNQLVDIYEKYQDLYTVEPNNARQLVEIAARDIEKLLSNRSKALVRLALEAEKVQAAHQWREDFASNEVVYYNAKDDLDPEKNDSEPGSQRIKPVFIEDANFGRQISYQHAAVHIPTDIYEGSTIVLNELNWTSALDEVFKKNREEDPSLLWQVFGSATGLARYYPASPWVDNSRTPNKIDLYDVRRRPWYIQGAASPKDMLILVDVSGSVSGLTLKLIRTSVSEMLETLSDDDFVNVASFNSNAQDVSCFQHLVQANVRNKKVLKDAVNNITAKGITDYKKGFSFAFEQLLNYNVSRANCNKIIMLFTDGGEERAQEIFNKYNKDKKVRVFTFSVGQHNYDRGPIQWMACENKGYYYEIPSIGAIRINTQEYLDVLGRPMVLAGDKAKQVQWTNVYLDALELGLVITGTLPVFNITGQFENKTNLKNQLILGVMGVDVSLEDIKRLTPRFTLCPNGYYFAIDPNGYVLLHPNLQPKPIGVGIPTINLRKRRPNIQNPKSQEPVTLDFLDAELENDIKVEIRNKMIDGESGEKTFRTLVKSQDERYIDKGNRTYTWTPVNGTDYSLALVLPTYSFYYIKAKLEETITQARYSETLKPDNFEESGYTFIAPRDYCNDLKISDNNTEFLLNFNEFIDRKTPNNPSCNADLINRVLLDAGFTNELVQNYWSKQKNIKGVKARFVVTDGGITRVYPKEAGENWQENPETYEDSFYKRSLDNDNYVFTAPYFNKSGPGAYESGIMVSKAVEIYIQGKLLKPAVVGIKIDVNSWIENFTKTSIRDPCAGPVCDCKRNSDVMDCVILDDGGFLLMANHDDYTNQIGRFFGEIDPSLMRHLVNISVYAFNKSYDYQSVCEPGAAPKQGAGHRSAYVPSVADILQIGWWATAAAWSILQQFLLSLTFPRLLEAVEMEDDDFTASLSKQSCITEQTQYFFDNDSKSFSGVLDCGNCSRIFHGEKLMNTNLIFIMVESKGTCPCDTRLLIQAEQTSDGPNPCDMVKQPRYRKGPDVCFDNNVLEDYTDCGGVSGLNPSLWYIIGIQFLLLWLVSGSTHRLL

| Structure (SMILES) | Ki [1] [nM] | Ki [2] [nM] |
| --- | --- | --- |
| CC[C@@H](c1ccccc1)[C@@H](CN)C(=O)N1CCC2(CC1)c1ccccc1CCN2C [Example 1] | < 500 | < 100 |
| CNC[C@@H](C(=O)N1CCC2(CC1)c1ccccc1CCN2C)[C@@H](C)c1ccccc1 [Example 2, (2S,3R)-1-(2-methyl-3,4-dihydro-2H-spiro[isoquinoline-1,4'-piperidin]-1'-yl)-2-((methylamino)methyl)-3-phenylbutan-1-one] | < 500 | 100 to 500 |
| CC[C@@H](c1cccc(Cl)c1)[C@@H](CNC)C(=O)N1CCC2(CC1)c1ccccc1CCN2C [Example 3, (2S,3R)-3-(3-chlorophenyl)-1-(2-methyl-3,4-dihydro-2H-spiro[isoquinoline-1,4'-piperidin]-1'-yl)-2-((methylamino)methyl)pentan-1-one dihydrochloride] | < 500 | 100 to 500 |
| CC[C@@H](c1cccc(Cl)c1)[C@@H](CN)C(=O)N1CCC2(CC1)c1ccccc1CCN2C [Example 4, (2S,3R)-2-(aminomethyl)-3-(3-chlorophenyl)-1-(2-methyl-3,4-dihydro-2H-spiro[isoquinoline-1,4'-piperidin]-1'-yl)pentan-1-one] | < 500 | < 100 |
